# Assays:
# Type in all cases: cell-based
# [1] = tested on: Trichophyton rubrum; test: Challenge testing with pathogenic fungi in SDB; conditions: w/v % in label, INT respiratory dye; for Grade code, Pathogenic Fungi, T. ruburm, 3 Days: 3 days incubation; for Grade code, Pathogenic Fungi, T. ruburm, 14 Days: 14 days incubation; for Grade code, Pathogenic Fungi, T. ruburm, 30 Days: 30 days incubation
# Description: (§1) Both M. canis and Trichophyton rubrum were grown on Sabouraud dextrose broth (SDB) (pH 5.6), while Malassezia fufur was grown in SDB supplemented with 2% (v/v) of olive oil and 0.2% (v/v) of Tween™ 80; incubation was at 22° C.±2° C. under continuous agitation by stirring for 10 days. The organisms were grown to a cell concentration of between 10^3 and 10^4 cfu/mL. The actual inoculation cell concentration of these challenges was determined by diluting in sterile buffer water and (spread-plate method) plating for enumeration.
# (§2) Challenge organisms were used to inoculate tubes containing each test material (CHDM, etc) or combination of test materials, at concentrations given in Table 5, in SDB (or for M. furfur, in SDB supplemented with olive oil and Tween™ 80). The inoculations were in the amount of 1.5 mL aliquots of each culture with static incubation at 22±2° C. Subcultures were made after 3-, 14-, and 30-days incubation. All challenges were conducted in triplicate. In the case of M. canis, the growth response was assessed by the visual presence or absence of growth in the tubes; in the case of T. rubrum, a respiratory dye (0.2% w/v aqueous INT solution: 2-(4-iodophenyl)-3-(4-nitrophenyl)-5-phenyl tetrazolium chloride) was added to the tubes, turning red if the organism was viable; and, finally, in the case of M. furfur, the growth response was assessed based upon visible pellicle formation in the tubes at the meniscus. The fungal growth in each tube was assigned a grade code as follows:
# (§3) 0: No visible growth 1: Some growth in tube 2: Moderate growth in tube 3: Good growth in tube 4: Extreme growth in tube
# (§4) All test material concentrations are given as w/v %. The grade codes given are the average of the grade codes for duplicate or triplicate samples.
# (§5) Table 5 compares the antimicrobial activity of 1,4-CHDM (AB) alone to 1,4-CHDM in combination with EDTA, phenoxyethanol (PE), and caprylyl glycol (CG). CHDM at 0.5% was tested with EDTA, and at 1.25 and 2.5% with EDTA, PE, and CG. (Note that the combination of CHDM with only EDTA was not tested against pathogenic fungi.) Results are also given for EDTA, PE, and CG alone, so the result for each mixture can be compared to the antimicrobial activity for each of its components individually. […] Possible synergies were determined by treating the grade code as an estimate of the log of the microbial count (log of cfu/mL). Log reductions can then be estimated by subtracting each grade code from the grade code for broth alone (grade code 5, except for the pathogenic fungi).
# [2] = tested on: Malassezia furfur; test: Challenge testing with pathogenic fungi in SDB; conditions: SDB with olive oil and Tween 80, w/v % in label, pellicle formation; for Grade code, Pathogenic Fungi, M. furfur, 14 Days: 14 days incubation; for Grade code, Pathogenic Fungi, M. furfur, 30 Days: 30 days incubation
# Description: as §1, §2, §3, §4, §5
# [3] = tested on: Microsporum canis; test: Challenge testing with pathogenic fungi in SDB; conditions: w/v % in label, visual growth in tubes; for Grade code, Pathogenic Fungi, M. canis, 14 Days: 14 days incubation; for Grade code, Pathogenic Fungi, M. canis, 30 Days: 30 days incubation
# Description: as §1, §2, §3, §4, §5
# [4] = tested on: Candida albicans; test: Microbial challenge testing in BPW; conditions: for Grade code, C. albicans, 3 Day / Grade code, C. albicans, 14 Day / Grade code, C. albicans, 30 Days: BPW, w/v % in label, average of replicates
# Summary of the method: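 C. albicans was grown in TSB with 1% dextrose at 22°C and harvested by gauze filtration and centrifugation. It was then adjusted by turbidity in pH 7.2 phosphate buffer and checked by hemocytometer and SDA plate counts. The inoculum was added to BPW (pH 7.0, 1% dextrose) containing test materials, giving 10^5–10^6 cfu/mL at time zero.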
smiles,measurement,setting,value
"OCC1CCC(CO)CC1 (centres unmarked) [1,4-CHDM, 1,4-cyclohexanedimethanol]","Grade code, Pathogenic Fungi, T. ruburm, 3 Days",[1]; listed as 0.5% AB,1
same,"Grade code, Pathogenic Fungi, T. ruburm, 3 Days",[1]; listed as 1.25% AB,0
same,"Grade code, Pathogenic Fungi, T. ruburm, 3 Days",[1]; listed as 2.5% AB,0
same,"Grade code, Pathogenic Fungi, T. ruburm, 14 Days",[1]; listed as 0.5% AB,1
same,"Grade code, Pathogenic Fungi, T. ruburm, 14 Days",[1]; listed as 1.25% AB,0
same,"Grade code, Pathogenic Fungi, T. ruburm, 14 Days",[1]; listed as 2.5% AB,0
same,"Grade code, Pathogenic Fungi, T. ruburm, 30 Days",[1]; listed as 0.5% AB,1
same,"Grade code, Pathogenic Fungi, T. ruburm, 30 Days",[1]; listed as 1.25% AB,0
same,"Grade code, Pathogenic Fungi, T. ruburm, 30 Days",[1]; listed as 2.5% AB,0
same,"Grade code, Pathogenic Fungi, M. furfur, 3 Days",[2]; 3 days incubation,0
same,"Grade code, Pathogenic Fungi, M. furfur, 14 Days",[2]; listed as 0.5% AB,1
same,"Grade code, Pathogenic Fungi, M. furfur, 14 Days",[2]; listed as 1.25% AB,0
same,"Grade code, Pathogenic Fungi, M. furfur, 14 Days",[2]; listed as 2.5% AB,0
same,"Grade code, Pathogenic Fungi, M. furfur, 30 Days",[2]; listed as 0.5% AB,2
same,"Grade code, Pathogenic Fungi, M. furfur, 30 Days",[2]; listed as 1.25% AB,0
same,"Grade code, Pathogenic Fungi, M. furfur, 30 Days",[2]; listed as 2.5% AB,0
same,"Grade code, Pathogenic Fungi, M. canis, 3 Days",[3]; 3 days incubation,2
same,"Grade code, Pathogenic Fungi, M. canis, 14 Days",[3]; listed as 0.5% AB,1
same,"Grade code, Pathogenic Fungi, M. canis, 14 Days",[3]; listed as 1.25% AB,1
same,"Grade code, Pathogenic Fungi, M. canis, 14 Days",[3]; listed as 2.5% AB,0
same,"Grade code, Pathogenic Fungi, M. canis, 30 Days",[3]; listed as 0.5% AB,1
same,"Grade code, Pathogenic Fungi, M. canis, 30 Days",[3]; listed as 1.25% AB,1
same,"Grade code, Pathogenic Fungi, M. canis, 30 Days",[3]; listed as 2.5% AB,0
same,Grade code C. albicans,"[4]; 0.5%, 3 days incubation","3 (101 to 1000 colonies (thus 1000 to 10,000 cfu/mL))"
same,Grade code C. albicans,"[4]; 0.5%, 14 days incubation","4 (1001 to 10,000 colonies (thus 10,000 cfu/mL to 100,000 cfu/mL))"
same,Grade code C. albicans,"[4]; 0.5%, 30 days incubation","4 (1001 to 10,000 colonies (thus 10,000 cfu/mL to 100,000 cfu/mL))"
same,Grade code C. albicans,"[4]; 1.25%, 3 days incubation",1 (1 to 51 colonies counted (thus 10 to 510 cfu/mL))
same,Grade code C. albicans,"[4]; 1.25%, 14 days incubation","3 (101 to 1000 colonies (thus 1000 to 10,000 cfu/mL))"
same,Grade code C. albicans,"[4]; 1.25%, 30 days incubation","4 (1001 to 10,000 colonies (thus 10,000 cfu/mL to 100,000 cfu/mL))"
same,Grade code C. albicans,"[4]; 2.5%, 3 days incubation",0 (No growth detected or <1 colony (thus <10 cfu/mL))
same,Grade code C. albicans,"[4]; 2.5%, 14 days incubation",2 (52 to 100 colonies counted (thus 520 to 1000 cfu/mL))
same,Grade code C. albicans,"[4]; 2.5%, 30 days incubation",1 (1 to 51 colonies counted (thus 10 to 510 cfu/mL))
same,"Grade code, C. albicans, 3 Day","[4]; 3 days incubation, listed as 0.5% AB","3 (101 to 1000 colonies (thus 1000 to 10,000 cfu/mL))"
same,"Grade code, C. albicans, 3 Day","[4]; 3 days incubation, listed as 1.25% AB",1 (1 to 51 colonies counted (thus 10 to 510 cfu/mL))
same,"Grade code, C. albicans, 3 Day","[4]; 3 days incubation, listed as 2.5% AB",0 (No growth detected or <1 colony (thus <10 cfu/mL))
same,"Grade code, C. albicans, 14 Day","[4]; 14 days incubation, listed as 0.5% AB","4 (1001 to 10,000 colonies (thus 10,000 cfu/mL to 100,000 cfu/mL))"
same,"Grade code, C. albicans, 14 Day","[4]; 14 days incubation, listed as 1.25% AB","3 (101 to 1000 colonies (thus 1000 to 10,000 cfu/mL))"
same,"Grade code, C. albicans, 14 Day","[4]; 14 days incubation, listed as 2.5% AB",2 (52 to 100 colonies counted (thus 520 to 1000 cfu/mL))
same,"Grade code, C. albicans, 30 Days","[4]; 30 days incubation, listed as 0.5% AB","4 (1001 to 10,000 colonies (thus 10,000 cfu/mL to 100,000 cfu/mL))"
same,"Grade code, C. albicans, 30 Days","[4]; 30 days incubation, listed as 1.25% AB","4 (1001 to 10,000 colonies (thus 10,000 cfu/mL to 100,000 cfu/mL))"
same,"Grade code, C. albicans, 30 Days","[4]; 30 days incubation, listed as 2.5% AB",1 (1 to 51 colonies counted (thus 10 to 510 cfu/mL))

# Source: patent US20110028566A1, “COMPOSITIONS AND PRODUCTS CONTAINING CYCLOALIPHATIC DIOL ANTIMICROBIAL AGENTS AND METHODS OF USING THE COMPOSITIONS AND PRODUCTS” (EASTMAN CHEMICAL COMPANY, priority 2009, published 2011)
